# Data reported in PubChem BioAssay (NCI).
#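 Step 1: Grow cells in 96-well plates. Step 2: Expose to compound for 48 hours at 5 concentrations. Step 3: Interpolate endpoints linearly; if unreached, use highest concentration. GI50 marks 50% less growth. Definition used: TGI = concentration required for complete inhibition of growth.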
# Key:
# Experiment in all cases: NCI tumour cell line growth inhibition, 48 h
# UO-31 renal = test system: UO-31 renal
# IGROV1 ovarian = test system: IGROV1 ovarian
# BT-549 breast = test system: BT-549 breast
# CCRF-CEM leukemia = test system: CCRF-CEM leukemia
# HT29 colon = test system: HT29 colon
# HS 578T breast = test system: HS 578T breast
# HL-60(TB) leukemia = test system: HL-60(TB) leukemia
# OVCAR-3 ovarian = test system: OVCAR-3 ovarian
# MDA-MB-231 breast = test system: MDA-MB-231 breast
# SF-295 CNS = test system: SF-295 CNS
# OVCAR-4 ovarian = test system: OVCAR-4 ovarian
# MOLT-4 leukemia = test system: MOLT-4 leukemia
# LOX IMVI melanoma = test system: LOX IMVI melanoma
# PC-3 prostate = test system: PC-3 prostate
# RPMI-8226 leukemia = test system: RPMI-8226 leukemia
# A498 renal = test system: A498 renal
# MDA-MB-435 = test system: MDA-MB-435
# NCI-H226 lung = test system: NCI-H226 lung
# NCI/ADR-RES ovarian = test system: NCI/ADR-RES ovarian
# CAKI-1 renal = test system: CAKI-1 renal
# 786-0 renal = test system: 786-0 renal
# HCT-116 colon = test system: HCT-116 colon
# DU-145 prostate = test system: DU-145 prostate
# UACC-62 melanoma = test system: UACC-62 melanoma
# SR leukemia = test system: SR leukemia
# HOP-92 NSCLC = test system: HOP-92 NSCLC
# TK-10 renal = test system: TK-10 renal
# COLO 205 colon = test system: COLO 205 colon
# SW-620 colon = test system: SW-620 colon
# SNB-19 CNS = test system: SNB-19 CNS
# SF-268 CNS = test system: SF-268 CNS
# NCI-H522 lung = test system: NCI-H522 lung
# OVCAR-5 ovarian = test system: OVCAR-5 ovarian
# NCI-H23 lung = test system: NCI-H23 lung
# UACC-257 melanoma = test system: UACC-257 melanoma
# T-47D breast = test system: T-47D breast
# HCT-15 colon = test system: HCT-15 colon
# ACHN renal = test system: ACHN renal
# U251 CNS = test system: U251 CNS
# HOP-62 NSCLC = test system: HOP-62 NSCLC
# SK-MEL-5 melanoma = test system: SK-MEL-5 melanoma
# HCC-2998 colon = test system: HCC-2998 colon
# EKVX NSCLC = test system: EKVX NSCLC
# SK-OV-3 ovarian = test system: SK-OV-3 ovarian
# SNB-75 CNS = test system: SNB-75 CNS
# SN12C renal = test system: SN12C renal
# SF-539 CNS = test system: SF-539 CNS
# RXF 393 renal = test system: RXF 393 renal
# MCF7 breast = test system: MCF7 breast
# SK-MEL-2 melanoma = test system: SK-MEL-2 melanoma
# SK-MEL-28 melanoma = test system: SK-MEL-28 melanoma
# KM12 colon = test system: KM12 colon
# K-562 leukemia = test system: K-562 leukemia
smiles,measurement,setting,value
c1ccc(-c2n(Cc3ccc4ccccc4c3)c3c4ccccc4c4ccccc4c3[n+]2Cc2ccc3ccccc3c2)cc1,GI50,UO-31 renal,1550 nM
same,TGI,UO-31 renal,3220 nM
same,GI50,IGROV1 ovarian,192 nM
same,TGI,IGROV1 ovarian,1340 nM
same,GI50,BT-549 breast,316 nM
same,TGI,BT-549 breast,1290 nM
same,GI50,CCRF-CEM leukemia,357 nM
same,TGI,CCRF-CEM leukemia,1750 nM
same,GI50,HT29 colon,179 nM
same,TGI,HT29 colon,1380 nM
same,GI50,HS 578T breast,434 nM
same,TGI,HS 578T breast,2050 nM
same,GI50,HL-60(TB) leukemia,157 nM
same,TGI,HL-60(TB) leukemia,380 nM
same,GI50,OVCAR-3 ovarian,351 nM
same,TGI,OVCAR-3 ovarian,1230 nM
same,GI50,MDA-MB-231 breast,313 nM
same,TGI,MDA-MB-231 breast,1060 nM
same,GI50,SF-295 CNS,282 nM
same,TGI,SF-295 CNS,1110 nM
same,GI50,OVCAR-4 ovarian,298 nM
same,TGI,OVCAR-4 ovarian,1270 nM
same,GI50,MOLT-4 leukemia,377 nM
same,TGI,MOLT-4 leukemia,1390 nM
same,GI50,LOX IMVI melanoma,177 nM
same,TGI,LOX IMVI melanoma,355 nM
same,GI50,PC-3 prostate,313 nM
same,TGI,PC-3 prostate,1220 nM
same,GI50,RPMI-8226 leukemia,261 nM
same,TGI,RPMI-8226 leukemia,1040 nM
same,GI50,A498 renal,337 nM
same,TGI,A498 renal,1230 nM
same,GI50,MDA-MB-435,340 nM
same,TGI,MDA-MB-435,1250 nM
same,GI50,NCI-H226 lung,408 nM
same,TGI,NCI-H226 lung,1850 nM
same,GI50,NCI/ADR-RES ovarian,1630 nM
same,TGI,NCI/ADR-RES ovarian,3660 nM
same,GI50,CAKI-1 renal,389 nM
same,TGI,CAKI-1 renal,1520 nM
same,GI50,786-0 renal,337 nM
same,TGI,786-0 renal,1340 nM
same,GI50,HCT-116 colon,183 nM
same,TGI,HCT-116 colon,1140 nM
same,GI50,DU-145 prostate,406 nM
same,TGI,DU-145 prostate,1520 nM
same,GI50,UACC-62 melanoma,343 nM
same,TGI,UACC-62 melanoma,1400 nM
same,GI50,SR leukemia,245 nM
same,TGI,SR leukemia,825 nM
same,GI50,HOP-92 NSCLC,211 nM
same,TGI,HOP-92 NSCLC,740 nM
same,GI50,TK-10 renal,468 nM
same,TGI,TK-10 renal,2000 nM
same,GI50,COLO 205 colon,267 nM
same,TGI,COLO 205 colon,795 nM
same,GI50,SW-620 colon,329 nM
same,TGI,SW-620 colon,1370 nM
same,GI50,SNB-19 CNS,364 nM
same,TGI,SNB-19 CNS,1450 nM
same,GI50,SF-268 CNS,441 nM
same,TGI,SF-268 CNS,1840 nM
same,GI50,NCI-H522 lung,340 nM
same,TGI,NCI-H522 lung,1630 nM
same,GI50,OVCAR-5 ovarian,423 nM
same,TGI,OVCAR-5 ovarian,1700 nM
same,GI50,NCI-H23 lung,228 nM
same,TGI,NCI-H23 lung,790 nM
same,GI50,UACC-257 melanoma,328 nM
same,TGI,UACC-257 melanoma,1240 nM
same,GI50,T-47D breast,367 nM
same,TGI,T-47D breast,1840 nM
same,GI50,HCT-15 colon,966 nM
same,TGI,HCT-15 colon,2630 nM
same,GI50,ACHN renal,708 nM
same,TGI,ACHN renal,1930 nM
same,GI50,U251 CNS,312 nM
same,TGI,U251 CNS,1560 nM
same,GI50,HOP-62 NSCLC,358 nM
same,TGI,HOP-62 NSCLC,1590 nM
same,GI50,SK-MEL-5 melanoma,203 nM
same,TGI,SK-MEL-5 melanoma,437 nM
same,GI50,HCC-2998 colon,407 nM
same,TGI,HCC-2998 colon,1580 nM
same,GI50,EKVX NSCLC,552 nM
same,TGI,EKVX NSCLC,2030 nM
same,GI50,SK-OV-3 ovarian,317 nM
same,TGI,SK-OV-3 ovarian,1120 nM
same,GI50,SNB-75 CNS,303 nM
same,TGI,SNB-75 CNS,1400 nM
same,GI50,SN12C renal,323 nM
same,TGI,SN12C renal,1210 nM
same,GI50,SF-539 CNS,375 nM
same,TGI,SF-539 CNS,1400 nM
same,GI50,RXF 393 renal,280 nM
same,TGI,RXF 393 renal,1030 nM
same,GI50,MCF7 breast,304 nM
same,TGI,MCF7 breast,1360 nM
same,GI50,SK-MEL-2 melanoma,294 nM
same,TGI,SK-MEL-2 melanoma,853 nM
same,GI50,SK-MEL-28 melanoma,569 nM
same,TGI,SK-MEL-28 melanoma,1870 nM
same,GI50,KM12 colon,395 nM
same,TGI,KM12 colon,1510 nM
same,GI50,K-562 leukemia,271 nM
same,TGI,K-562 leukemia,1180 nM
